≈ marks a conversion by molar mass, not a printed value.
What was measured:
Type in all cases: functional
Staphylococcus aureus [1] = test: Antibacterial activity against methicillin-resistant Staphylococcus aureus USA300 assessed as inhibition of bacterial growth incubated for 18 hrs by two fold serial dilution assay
Staphylococcus aureus [2] = test: Antibacterial activity against Staphylococcus aureus Newman assessed as inhibition of bacterial growth incubated for 18 hrs by two fold serial dilution assay
Staphylococcus aureus [3] = test: Antibacterial activity against methicillin-resistant Staphylococcus aureus NRS-271 assessed as inhibition of bacterial growth incubated for 18 hrs by two fold serial dilution assay
Staphylococcus aureus [4] = test: Antibacterial activity against methicillin-resistant Staphylococcus aureus NRS-1 assessed as inhibition of bacterial growth incubated for 18 hrs by two fold serial dilution assay
Staphylococcus aureus [5] = test: Antibacterial activity against methicillin-resistant Staphylococcus aureus NRS-108 assessed as inhibition of bacterial growth incubated for 18 hrs by two fold serial dilution assay
Staphylococcus aureus [6] = test: Antibacterial activity against methicillin-resistant Staphylococcus aureus XJ036 assessed as inhibition of bacterial growth incubated for 18 hrs by two fold serial dilution assay
Staphylococcus aureus [7] = test: Antibacterial activity against methicillin-resistant Staphylococcus aureus NRS-100 assessed as inhibition of bacterial growth incubated for 18 hrs by two fold serial dilution assay
Staphylococcus aureus [8] = test: Antibacterial activity against methicillin-resistant Staphylococcus aureus NRS-70 assessed as inhibition of bacterial growth incubated for 18 hrs by two fold serial dilution assay
Staphylococcus aureus [9] = test: Antibacterial activity against methicillin-resistant Staphylococcus aureus XJ017 assessed as inhibition of bacterial growth incubated for 18 hrs by two fold serial dilution assay

| SMILES | MIC (Staphylococcus aureus [1]) [µg/mL] | MIC (Staphylococcus aureus [2]) [µg/mL] | MIC (Staphylococcus aureus [3]) [µg/mL] | MIC (Staphylococcus aureus [4]) [µg/mL] | MIC (Staphylococcus aureus [5]) [µg/mL] | MIC (Staphylococcus aureus [6]) [µg/mL] | MIC (Staphylococcus aureus [7]) [µg/mL] | MIC (Staphylococcus aureus [8]) [µg/mL] | MIC (Staphylococcus aureus [9]) [µg/mL] |
| --- | --- | --- | --- | --- | --- | --- | --- | --- | --- |
| CC1(C)c2nc3ccccc3nc2C[C@]2(C)[C@H]3C[C@@H](O)[C@@H]4[C@@H]([C@@](C)(O)CCC(=O)NC5CCCCC5)CC[C@@]4(C)[C@]3(C)CC[C@@H]12 | > 64 | > 64 |  |  |  |  |  |  |  |
| CC1(C)c2nc3ccccc3nc2C[C@]2(C)[C@H]3C[C@@H](O)[C@@H]4[C@@H]([C@@](C)(O)CCC(=O)Nc5ccc(C(F)(F)F)cc5)CC[C@@]4(C)[C@]3(C)CC[C@@H]12 | > 64 | > 64 |  |  |  |  |  |  |  |
| CC1(C)c2[nH]c3ccccc3c2C[C@]2(C)[C@H]3C[C@@H](O)[C@@H]4[C@@H]([C@@](C)(O)CCCO)CC[C@@]4(C)[C@]3(C)CC[C@@H]12 | 32 (≈ 63 µM) | 4 (≈ 7.88 µM) |  |  |  |  |  |  |  |
| CC1(C)c2nc3ccccc3nc2C[C@]2(C)[C@H]3C[C@@H](O)[C@@H]4[C@@H]([C@]5(C)CCC(=O)O5)CC[C@@]4(C)[C@]3(C)CC[C@@H]12 | 8 (≈ 15.5 µM) | 4 (≈ 7.74 µM) |  |  |  |  |  |  |  |
| CC1(C)c2nc3ccccc3nc2C[C@]2(C)[C@H]3C[C@@H](O)[C@@H]4[C@@H]([C@@](C)(O)CCC(=O)Nc5ccc6ncsc6c5)CC[C@@]4(C)[C@]3(C)CC[C@@H]12 | > 64 | > 64 |  |  |  |  |  |  |  |
| CC1(C)c2nc(N)ncc2C[C@]2(C)[C@H]3C[C@@H](O)[C@@H]4[C@@H]([C@@](C)(O)CCCO)CC[C@@]4(C)[C@]3(C)CC[C@@H]12 | 32 (≈ 65.9 µM) | 16 (≈ 32.9 µM) |  |  |  |  |  |  |  |
| CC(C)=CCC[C@](C)(O)[C@H]1CC[C@]2(C)[C@@H]1[C@H](O)C[C@@H]1[C@@]3(C)Cc4nc5ccccc5nc4C(C)(C)[C@@H]3CC[C@]12C | > 64 | > 64 |  |  |  |  |  |  |  |
| CC1(C)c2nc3ccccc3nc2C[C@]2(C)[C@H]3C[C@@H](O)[C@@H]4[C@@H]([C@@](C)(O)CCC(=O)NC5CCCC5)CC[C@@]4(C)[C@]3(C)CC[C@@H]12 | > 64 | > 64 |  |  |  |  |  |  |  |
| COc1ccc(NC(=O)CC[C@](C)(O)[C@H]2CC[C@]3(C)[C@@H]2[C@H](O)C[C@@H]2[C@@]4(C)Cc5nc6ccccc6nc5C(C)(C)[C@@H]4CC[C@]23C)cc1 | > 64 | > 64 |  |  |  |  |  |  |  |
| CC1(C)c2nc3ccccc3nc2C[C@]2(C)[C@H]3C[C@@H](O)[C@@H]4[C@@H]([C@@](C)(O)CCC(=O)Nc5cnccn5)CC[C@@]4(C)[C@]3(C)CC[C@@H]12 | 2 (≈ 3.27 µM) | 2 (≈ 3.27 µM) | 8 (≈ 13.1 µM) | > 64 | 4 (≈ 6.54 µM) | 4 (≈ 6.54 µM) | 4 (≈ 6.54 µM) | 4 (≈ 6.54 µM) | 16 (≈ 26.2 µM) |
| CN(C)C(=O)CC[C@](C)(O)[C@H]1CC[C@]2(C)[C@@H]1[C@H](O)C[C@@H]1[C@@]3(C)Cc4nc5ccccc5nc4C(C)(C)[C@@H]3CC[C@]12C | 4 (≈ 7.12 µM) | 4 (≈ 7.12 µM) | 4 (≈ 7.12 µM) | 4 (≈ 7.12 µM) | 4 (≈ 7.12 µM) | 8 (≈ 14.2 µM) | 8 (≈ 14.2 µM) | 4 (≈ 7.12 µM) | > 64 |
| Cc1nc2c(o1)C(C)(C)[C@@H]1CC[C@]3(C)[C@H](C[C@@H](O)[C@@H]4[C@@H]([C@@](C)(O)CCCO)CC[C@]43C)[C@@]1(C)C2 | > 64 | > 64 |  |  |  |  |  |  |  |
| CC1(C)c2nc3ccccc3nc2C[C@]2(C)[C@H]3C[C@@H](O)[C@@H]4[C@@H]([C@@](C)(O)CCC(=O)Nc5cccnc5)CC[C@@]4(C)[C@]3(C)CC[C@@H]12 | 4 (≈ 6.55 µM) | 2 (≈ 3.27 µM) | 16 (≈ 26.2 µM) | > 64 | 8 (≈ 13.1 µM) | 4 (≈ 6.55 µM) | 8 (≈ 13.1 µM) | 8 (≈ 13.1 µM) | 16 (≈ 26.2 µM) |
| CC1(C)c2nc3ccccc3nc2C[C@]2(C)[C@H]3C[C@@H](O)[C@@H]4[C@@H]([C@@](C)(O)CCC(=O)Nc5ccccc5)CC[C@@]4(C)[C@]3(C)CC[C@@H]12 | > 64 | > 64 |  |  |  |  |  |  |  |
| CCNC(=O)CC[C@](C)(O)[C@H]1CC[C@]2(C)[C@@H]1[C@H](O)C[C@@H]1[C@@]3(C)Cc4nc5ccccc5nc4C(C)(C)[C@@H]3CC[C@]12C | 4 (≈ 7.12 µM) | 4 (≈ 7.12 µM) | 4 (≈ 7.12 µM) | > 64 | 4 (≈ 7.12 µM) | 4 (≈ 7.12 µM) | 4 (≈ 7.12 µM) | 4 (≈ 7.12 µM) | 8 (≈ 14.2 µM) |
| CC1(C)c2nc(N)sc2C[C@]2(C)[C@H]3C[C@@H](O)[C@@H]4[C@@H]([C@@](C)(O)CCCO)CC[C@@]4(C)[C@]3(C)CC[C@@H]12 | > 64 | 16 (≈ 32.6 µM) |  |  |  |  |  |  |  |

| SMILES | MIC (Staphylococcus aureus [1]) [µg/mL] | MIC (Staphylococcus aureus [2]) [µg/mL] | MIC (Staphylococcus aureus [3]) [µg/mL] | MIC (Staphylococcus aureus [4]) [µg/mL] | MIC (Staphylococcus aureus [5]) [µg/mL] | MIC (Staphylococcus aureus [6]) [µg/mL] | MIC (Staphylococcus aureus [7]) [µg/mL] | MIC (Staphylococcus aureus [8]) [µg/mL] | MIC (Staphylococcus aureus [9]) [µg/mL] |
| --- | --- | --- | --- | --- | --- | --- | --- | --- | --- |
| CCCNC(=O)CC[C@](C)(O)[C@H]1CC[C@]2(C)[C@@H]1[C@H](O)C[C@@H]1[C@@]3(C)Cc4nc5ccccc5nc4C(C)(C)[C@@H]3CC[C@]12C | > 64 | > 64 |  |  |  |  |  |  |  |
| CC1(C)c2nccnc2C[C@]2(C)[C@H]3C[C@@H](O)[C@@H]4[C@@H]([C@@](C)(O)CCCO)CC[C@@]4(C)[C@]3(C)CC[C@@H]12 | > 64 | > 64 |  |  |  |  |  |  |  |
| CC1(C)c2nc3ccccc3nc2C[C@]2(C)[C@H]3C[C@@H](O)[C@@H]4[C@@H]([C@@](C)(O)CCCO)CC[C@@]4(C)[C@]3(C)CC[C@@H]12 | 8 (≈ 15.4 µM) | 4 (≈ 7.68 µM) |  |  |  |  |  |  |  |
| CC1(C)c2nc3ccccc3nc2C[C@]2(C)[C@H]3C[C@@H](O)[C@@H]4[C@@H]([C@@](C)(O)CCC(=O)Nc5ccc6nccnc6c5)CC[C@@]4(C)[C@]3(C)CC[C@@H]12 | > 64 | > 64 |  |  |  |  |  |  |  |
| CC1(C)c2nc3ccccc3nc2C[C@]2(C)[C@H]3C[C@@H](O)[C@@H]4[C@@H]([C@]5(C)CCCO5)CC[C@@]4(C)[C@]3(C)CC[C@@H]12 | > 64 | > 64 |  |  |  |  |  |  |  |
| CC1(C)c2nc3ccccc3nc2C[C@]2(C)[C@H]3C[C@@H](O)[C@@H]4[C@@H]([C@@](C)(O)CCC(=O)Nc5ncc[nH]5)CC[C@@]4(C)[C@]3(C)CC[C@@H]12 | 2 (≈ 3.33 µM) | 2 (≈ 3.33 µM) | 2 (≈ 3.33 µM) | 8 (≈ 13.3 µM) | 2 (≈ 3.33 µM) | 4 (≈ 6.67 µM) | 8 (≈ 13.3 µM) | 1 (≈ 1.67 µM) | 2 (≈ 3.33 µM) |
| CC1(C)c2nc3ccccc3cc2C[C@]2(C)[C@H]3C[C@@H](O)[C@@H]4[C@@H]([C@@](C)(O)CCCO)CC[C@@]4(C)[C@]3(C)CC[C@@H]12 | > 64 | 2 (≈ 3.85 µM) |  |  |  |  |  |  |  |
| CCCCNC(=O)CC[C@](C)(O)[C@H]1CC[C@]2(C)[C@@H]1[C@H](O)C[C@@H]1[C@@]3(C)Cc4nc5ccccc5nc4C(C)(C)[C@@H]3CC[C@]12C | > 64 | > 64 |  |  |  |  |  |  |  |
| CC1(C)c2ncncc2C[C@]2(C)[C@H]3C[C@@H](O)[C@@H]4[C@@H]([C@@](C)(O)CCCO)CC[C@@]4(C)[C@]3(C)CC[C@@H]12 | > 64 | > 64 |  |  |  |  |  |  |  |
| CC1(C)c2c(cnc3cccn23)C[C@]2(C)[C@H]3C[C@@H](O)[C@@H]4[C@@H]([C@@](C)(O)CCCO)CC[C@@]4(C)[C@]3(C)CC[C@@H]12 | > 64 | 4 (≈ 7.86 µM) |  |  |  |  |  |  |  |
| CC1(C)c2oncc2C[C@]2(C)[C@H]3C[C@@H](O)[C@@H]4[C@@H]([C@@](C)(O)CCCO)CC[C@@]4(C)[C@]3(C)CC[C@@H]12 | > 64 | > 64 |  |  |  |  |  |  |  |
| CC1(C)c2nc3ccccc3nc2C[C@]2(C)[C@H]3C[C@@H](O)[C@@H]4[C@@H]([C@@](C)(O)CCC(=O)O)CC[C@@]4(C)[C@]3(C)CC[C@@H]12 | 16 (≈ 29.9 µM) | 16 (≈ 29.9 µM) |  |  |  |  |  |  |  |
| C[C@H]1COc2c(N3CCN(C)CC3)c(F)cc3c(=O)c(C(=O)O)cn1c23 [LEVOFLOXACIN ANHYDROUS] |  |  | 4 (≈ 11.1 µM) | 16 (≈ 44.3 µM) | 0.125 (≈ 0.346 µM) | 32 (≈ 88.6 µM) | 0.125 (≈ 0.346 µM) | 0.125 (≈ 0.346 µM) | 64 (≈ 177 µM) |
| COC(=O)CC[C@](C)(O)[C@H]1CC[C@]2(C)[C@@H]1[C@H](O)C[C@@H]1[C@@]3(C)Cc4nc5ccccc5nc4C(C)(C)[C@@H]3CC[C@]12C | > 64 | > 64 |  |  |  |  |  |  |  |
| CC1(C)S[C@@H]2[C@H](NC(=O)[C@H](N)c3ccccc3)C(=O)N2[C@H]1C(=O)O [AMPICILLIN] |  |  | 4 (≈ 11.4 µM) |  | 2 (≈ 5.72 µM) | 8 (≈ 22.9 µM) | 0.063 (≈ 0.18 µM) | 8 (≈ 22.9 µM) | 32 (≈ 91.6 µM) |
